In patent EP4509511A1, “SUBSTITUTED SPIRO-ISOXAZOLINYL LACTAMS, SALTS THEREOF AND THEIR USE AS HERBICIDALLY ACTIVE SUBSTANCES” (Bayer Aktiengesellschaft, priority 2023, dated 2025):

Assays:
ZEAMX = experiment: Post-emergence effects on crop plants; type: in vivo, Zea mays; conditions: 5 g/ha; Table F1a; crop plant
Excerpt: (§1) Seeds of mono- and dicotyledonous weed plants and crop plants were sown, in plastic or organic planting pots, in sandy loam, covered with soil and grown in a greenhouse under controlled growth conditions. 2 to 3 weeks after sowing, the test plants were sprayed in the single-leaf stage. The compounds according to the invention, formulated in form of wettable powders (WP) or as emulsifiable concentrates (EC), were sprayed onto the green plant parts as aqueous suspension or emulsion, with the addition of 0.5% of an additive, at an application rate of 600 1 of water/ha (converted). The test plants were placed in the greenhouse for ca. 3 weeks under optimum growth conditions, and then the effect of the preparations was assessed visually in comparison with untreated controls (herbicidal effect in percent (%): 100% effect = plants have died off, 0% effect = as control plants). Tables F1 to F5 below show the effects of selected compounds of the general formula (I) according to table 1 on various crop plants and an application rate corresponding to 320 g/ha or below obtained by the experimental procedure mentioned above. Table […]: post-emergence activity at 5g/ha against ZEAMX in %

TRZAS = experiment: Post-emergence effects on crop plants; type: in vivo, Triticum aestivum; conditions: 5 g/ha; Table F2a; crop plant
Excerpt: as §1

VERPE = experiment: Herbicidal post-emergence action - Part II; type: in vivo, Veronica persica; conditions: 20 g/ha; Table E8b
Excerpt: (§2) Seeds of mono- and dicotyledonous weed plants and crop plants were sown, in plastic or organic planting pots, in sandy loam, covered with soil and grown in a greenhouse under controlled growth conditions. 2 to 3 weeks after sowing, the test plants were sprayed in the single-leaf stage. The compounds according to the invention, formulated in form of wettable powders (WP) or as emulsifiable concentrates (EC), were sprayed onto the green plant parts as aqueous suspension or emulsion, with the addition of 0.5% of an additive, at an application rate of 600 1 of water/ha (converted). The test plants were placed in the greenhouse for ca. 3 weeks under optimum growth conditions, and then the effect of the preparations was assessed visually in comparison with untreated controls (herbicidal effect in percent (%): 100% effect = plants have died off, 0% effect = as control plants). Tables E1 to E10 below show the effects of selected compounds of the general formula (I) according to table 1 on various harmful plants and an application rate corresponding to 320 g/ha or below obtained by the experimental procedure mentioned above. Table E1a: post-emergence activity at 5g/ha against ABUTH in %

AMARE = experiment: Herbicidal post-emergence action - Part II; type: in vivo, Amaranthus retroflexus
Excerpt: as §2

PHBPU = experiment: Herbicidal post-emergence action - Part II; type: in vivo, Pharbitis purpurea
Excerpt: as §2

SETVI = experiment: Herbicidal post-emergence action - Part II; type: in vivo, Setaria viridis; conditions: 20 g/ha; Table E7b
Excerpt: as §2

VIOTR = experiment: Herbicidal post-emergence action - Part II; type: in vivo, Viola tricolor; conditions: 20 g/ha; Table E9b
Excerpt: as §2

ABUTH = experiment: Herbicidal post-emergence action - Part II; type: in vivo, Abutilon theophrasti
Excerpt: as §2

MATIN = experiment: Herbicidal post-emergence action - Part II; type: in vivo, Matricaria inodora; conditions: 20 g/ha; Table E4b
Excerpt: as §2

Cn1c(C(F)(F)F)cc(=O)n(-c2cc(C3=NOC4(CCCNC4=O)C3)c(Cl)cc2F)c1=O (racemic) [Compound I-67]
100%: post-emergence activity against AMARE (AMARE; 5 g/ha, Table E2a) | post-emergence activity against AMARE (AMARE; 20 g/ha, Table E2b) | post-emergence activity against PHBPU (PHBPU; 5 g/ha, Table E5a) | post-emergence activity against PHBPU (PHBPU; 20 g/ha, Table E5b) | post-emergence activity against VIOTR (VIOTR) | post-emergence activity against ABUTH (ABUTH; 20 g/ha, Table E1b) | post-emergence activity against MATIN (MATIN)
20%: post-emergence activity against ZEAMX (ZEAMX) | post-emergence activity against TRZAS (TRZAS)
80%: post-emergence activity against VERPE (VERPE) | post-emergence activity against SETVI (SETVI) | post-emergence activity against ABUTH (ABUTH; 5 g/ha, Table E1a)
